The record followed here is PubChem BioAssay (NCI).

Each structure is given as a SMILES string.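 In this assay, cells in 96-well plates receive the compound at five concentrations for 48 hours. Endpoints are linearly interpolated between the surrounding concentrations. TGI: concentration producing complete growth inhibition.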

Holding throughout (assay): DTP human tumour cell line panel, 48 h
Test [1] deals with OVCAR-5 ovarian.
Test [2] concerns A549 NSCLC.
Test [3] has as its system SK-MEL-2 melanoma.
For test [4], the system named is MOLT-4 leukemia.
Test [5] relates to ACHN renal.
In test [6] the test system is NCI-H226 lung.
In test [7] the test system is UACC-257 melanoma.
The subject of test [8] is NCI-H522 lung.
For test [9], the system named is SK-OV-3 ovarian.
Test [10] has as its system T-47D breast.
Test [11] has as its system CCRF-CEM leukemia.

As to `CN(CCNC(=O)c1c[nH]c2c1Cc1ccccc1-2)CCNC(=O)c1c[nH]c2c1Cc1ccccc1-2`, the concentration for total growth inhibition (TGI) in test [1] was greater than 100 µM; in test [2] it was greater than 100 µM; in [3] it was 52.1 µM; in test [4], 63.7 µM; in [5], greater than 100 µM; in [6] it was 71.9 µM. The TGI in test [7] was greater than 100 µM; in test [8], 97 µM.
With `CCC(C)C1=C(O)[N+]2([O-])Oc3ccc(-c4c(O)c(O)c(-c5ccc(OC(C)=O)cc5)c(OC(C)=O)c4OC(C)=O)cc3OC2(C(C)CC)C(=O)N1O` (stereo not drawn), the total growth inhibition concentration (TGI) in test [1], in test [9], in test [2], in test [3], in [4] and in [5] was greater than 50 µM in each case. Also, the TGI in test [10], in test [11], in test [7] and in test [8] was greater than 50 µM each time.
As for `Cc1ccc2c(c1)nc1n2C(N)=Nc2ccccc2S1`, the TGI in [1], in test [9], in [2], in test [3], in test [4] and in [5] was greater than 100 µM each time. Further, the TGI in test [10], in test [6], in test [7] and in test [8] was greater than 100 µM in each case.
As to `O=C1CN(c2cccc(Cl)c2)C(=O)CN1NCNN1CC(=O)N(c2cccc(Cl)c2)CC1=O`, the total growth inhibition concentration (TGI) in test [1], in test [9], in test [2], in test [4], in test [5] and in test [11] was greater than 100 µM each time. For the same compound, the TGI in test [7] and in [8] was greater than 100 µM in each case.
Turning to `Clc1ccc(C[P+](c2ccccc2)(c2ccccc2)c2ccccc2)cc1Cl`, the TGI in test [1] was 19.2 µM; in test [9] it was 20.8 µM; in [2] it was 19.9 µM; in test [3], 6.4 µM; in [5], 31.2 µM; in test [6], 13.1 µM. In addition, the TGI came to 28.3 µM in test [11], 8.32 µM in test [7] and 10.3 µM in test [8].
Take `Cn1c(=O)c2c(nc3sc4ccccc4c(=O)n32)n(C)c1=O`: the total growth inhibition concentration (TGI) in test [1], in [9], in [3], in test [4], in [5] and in test [10] was greater than 100 µM in each case. For the same compound, the TGI in test [6] and in test [7] was greater than 100 µM in each case.
In the case of `C/C(N=NS(=O)(=O)c1ccc([N+](=O)[O-])cc1)=C1\C=CC=CN1O`, the concentration for total growth inhibition (TGI) in test [1], in test [9], in [2], in test [4], in test [5] and in test [11] was greater than 100 µM in each case. In addition, the total growth inhibition concentration (TGI) in test [7] and in test [8] was greater than 100 µM in each case.
With `CCn1c2ccccc2c2c(-c3ccccc3)cc3c(c21)C(=O)N(c1ccccc1)C3=O`, the TGI in test [1], in test [9], in test [2], in test [3], in [4] and in test [5] was greater than 100 µM throughout. The TGI in [6], in [11], in test [7] and in test [8] was greater than 100 µM each time.
Consider `CC(C)C1=CC(=O)[C@@](C)(C2[C@H](O)C[C@@]3(C)[C@@H]4CC=C5[C@@H](CC[C@@H](OC6OCC(O)C(O)C6OC6OC(C)C(O)C(O)C6O)C5(C)C)[C@]4(C)C(=O)C[C@]23C)O1` (stereo partly drawn), for which the TGI in test [1], in [9], in [2], in [4], in [5] and in test [10] was greater than 100 µM throughout. Besides, the TGI in test [6], in [11] and in [8] was greater than 100 µM each time.
Consider `C#CC(O)/C=C/CCCCCCC#CC/C=C\CC#CCCCCCCCCC(O)C#C` (stereo not drawn), for which the TGI in [1] is 27 µM; in test [9], 32.3 µM; in test [2] it was 25.8 µM; in test [3], 9.44 µM; in test [5], 29.5 µM; in [10], 36.3 µM. The TGI in test [6] came to 35.5 µM; in [7] it was 15.1 µM; in test [8] it was 0.526 µM.
As for `CC1(C)OC2OC(C(COS(=O)(=O)C(F)(F)F)N=[N+]=[N-])C(OC(=O)c3ccccc3)C2O1` (stereo not drawn), the TGI in [1], in test [9], in [2], in test [3], in test [4] and in test [5] was greater than 100 µM throughout. Besides, the TGI in test [6], in test [11] and in [7] was greater than 100 µM throughout.
As to `Br[C@@H]1[C@H]2c3nc4ccccc4nc3[C@@H]1C[C@H]2Br`, the TGI in test [1], in test [9], in [2], in [4], in [5] and in [10] was greater than 100 µM each time. The total growth inhibition concentration (TGI) in test [6] is 86.2 µM; in [11], greater than 100 µM; in [7], greater than 100 µM; in test [8], greater than 100 µM.
Regarding `C=C1C(=O)O[C@H]2C[C@@H]1[C@@H](O)[C@H](O)[C@@H](C)CCCC(C)=CCC[C@@]2(C)O`, the TGI in test [1] is 51.3 µM; in test [9], greater than 100 µM; in test [2], greater than 100 µM; in test [3] it was 41.2 µM; in [4], 54.6 µM; in test [5], 27.8 µM. Moreover, the TGI is 57.1 µM in test [10], greater than 100 µM in test [11], 36.4 µM in test [7] and 33.9 µM in test [8].

As usually defined, the TGI is the concentration giving total growth inhibition. Read a low TGI as more potent growth arrest.
